From patent US12539292B2, “BRM targeting compounds and associated methods of use” (Arvinas Operations, Inc., priority 2018, dated 2026)

Target: T1, BRM (Homo sapiens, UniProt P51531)
T1 construct: In-Cell Western Screen of BRM Degradation in SW1573 Cells; endogenous in cells; host or cells: SW1573
Assay: In-cell Western screen of BRM degradation in SW1573 cells (Dmax and DC50)
Type: cell-based
Settings: BRM degradation, SW1573 cells, Table 2D; for Dmax: read-out: **Dmax (%) (% degraded); for DC50: read-out: *DC50
How it was run: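 After adhering overnight, cells received compound for 18-20 hours. They were then washed in cold DPBS, fixed with 4% PFA for 20 min and permeabilized for 30 min. Blocking and fluorescent secondary staining followed before imaging.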

T1 sequence (P51531 whole entry): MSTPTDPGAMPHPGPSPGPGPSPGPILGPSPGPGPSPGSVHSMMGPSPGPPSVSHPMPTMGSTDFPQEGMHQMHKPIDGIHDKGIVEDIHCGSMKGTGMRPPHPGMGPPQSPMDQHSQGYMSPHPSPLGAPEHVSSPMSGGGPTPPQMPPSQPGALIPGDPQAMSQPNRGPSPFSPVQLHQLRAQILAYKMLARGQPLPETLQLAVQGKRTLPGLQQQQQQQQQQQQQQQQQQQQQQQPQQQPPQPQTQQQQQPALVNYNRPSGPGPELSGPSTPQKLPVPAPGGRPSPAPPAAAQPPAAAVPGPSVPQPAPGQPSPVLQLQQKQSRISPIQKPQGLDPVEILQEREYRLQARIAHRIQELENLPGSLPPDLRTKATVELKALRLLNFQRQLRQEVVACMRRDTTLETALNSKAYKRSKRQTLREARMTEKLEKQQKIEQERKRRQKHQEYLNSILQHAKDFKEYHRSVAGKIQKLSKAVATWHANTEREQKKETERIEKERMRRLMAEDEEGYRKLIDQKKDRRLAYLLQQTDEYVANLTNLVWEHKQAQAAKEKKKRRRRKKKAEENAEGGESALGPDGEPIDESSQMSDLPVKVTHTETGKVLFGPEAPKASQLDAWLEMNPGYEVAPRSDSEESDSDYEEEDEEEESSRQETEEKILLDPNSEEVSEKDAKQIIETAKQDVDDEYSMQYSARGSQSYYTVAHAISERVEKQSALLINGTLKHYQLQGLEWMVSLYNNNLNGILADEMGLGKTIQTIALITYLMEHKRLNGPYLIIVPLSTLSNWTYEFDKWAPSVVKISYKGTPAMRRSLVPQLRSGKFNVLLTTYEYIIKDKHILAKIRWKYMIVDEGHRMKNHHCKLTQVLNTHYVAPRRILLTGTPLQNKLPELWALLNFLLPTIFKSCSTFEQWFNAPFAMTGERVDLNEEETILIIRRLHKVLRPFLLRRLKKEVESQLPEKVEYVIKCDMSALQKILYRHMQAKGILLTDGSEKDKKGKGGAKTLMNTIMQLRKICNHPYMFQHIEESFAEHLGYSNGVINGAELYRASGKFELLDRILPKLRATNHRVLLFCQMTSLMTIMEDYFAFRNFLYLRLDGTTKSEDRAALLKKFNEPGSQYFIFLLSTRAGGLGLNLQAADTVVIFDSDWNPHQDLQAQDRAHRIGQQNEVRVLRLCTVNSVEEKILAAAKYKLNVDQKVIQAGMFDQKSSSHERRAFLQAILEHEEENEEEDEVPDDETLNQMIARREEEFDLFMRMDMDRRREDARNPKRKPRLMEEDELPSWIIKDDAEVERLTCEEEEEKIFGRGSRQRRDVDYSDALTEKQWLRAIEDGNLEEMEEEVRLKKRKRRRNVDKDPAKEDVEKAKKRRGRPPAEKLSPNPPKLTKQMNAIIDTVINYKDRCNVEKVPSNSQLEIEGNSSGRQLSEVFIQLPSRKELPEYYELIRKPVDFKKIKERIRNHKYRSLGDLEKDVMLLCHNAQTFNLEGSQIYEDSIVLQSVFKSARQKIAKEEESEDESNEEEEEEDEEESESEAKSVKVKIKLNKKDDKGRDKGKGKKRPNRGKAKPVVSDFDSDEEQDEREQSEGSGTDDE

SMILES | Dmax [%] | DC50 [nM]
Cc1ncsc1-c1cc(F)c([C@H](C)NC(=O)[C@@H]2C[C@@H](O)CN2C(=O)[C@@H](c2cc(OCCN3CCC(O[C@H]4C[C@H](Oc5cc(N6C7CCC6CN(c6cc(-c8ccccc8O)nnc6N)C7)ccn5)C4)CC3)no2)C(C)C)cn1 [compound 539, (2S,4R)-1-((2R)-2-(3-(2-(4-((1r,3R)-3-((4-(3-(3-amino-6-(2-hydroxyphenyl)pyridazin-4-yl)-3,8-diazabicyclo[3.2.1]octan-8-yl)pyridin-2-yl)oxy)cyclobutoxy)piperidin-1-yl)ethoxy)isoxazol-5-yl)-3-methylbutanoyl)-N-((S)-1-(4-fluoro-6-(4-methylthiazol-5-yl)pyridin-3-yl)ethyl)-4-hydroxypyrrolidine-2-carboxamide] | > 75 | < 2.5
Cc1ncsc1-c1cc(F)c([C@H](C)NC(=O)[C@@H]2C[C@@H](O)CN2C(=O)[C@H](c2cc(OCCN3CCC(O[C@H]4C[C@H](Oc5cc(N6C7CCC6CN(c6cc(-c8ccccc8O)nnc6N)C7)ccn5)C4)CC3)no2)C(C)C)cn1 [compound 540, (2S,4R)-1-((2S)-2-(3-(2-(4-((1r,3S)-3-((4-(3-(3-amino-6-(2-hydroxyphenyl)pyridazin-4-yl)-3,8-diazabicyclo[3.2.1]octan-8-yl)pyridin-2-yl)oxy)cyclobutoxy)piperidin-1-yl)ethoxy)isoxazol-5-yl)-3-methylbutanoyl)-N-((S)-1-(4-fluoro-6-(4-methylthiazol-5-yl)pyridin-3-yl)ethyl)-4-hydroxypyrrolidine-2-carboxamide] | – | > 30
Cc1ncsc1-c1cc(F)c([C@@H](C)NC(=O)[C@@H]2C[C@@H](O)CN2C(=O)[C@@H](c2cc(OCCN3CCC(O[C@H]4C[C@H](Oc5cc(N6C7CCC6CN(c6cc(-c8ccccc8O)nnc6N)C7)ccn5)C4)CC3)no2)C(C)C)cn1 [compound 541, (2S,4R)-1-((2R)-2-(3-(2-(4-((1r,3R)-3-((4-(3-(3-amino-6-(2-hydroxyphenyl)pyridazin-4-yl)-3,8-diazabicyclo[3.2.1]octan-8-yl)pyridin-2-yl)oxy)cyclobutoxy)piperidin-1-yl)ethoxy)isoxazol-5-yl)-3-methylbutanoyl)-N-((R)-1-(4-fluoro-6-(4-methylthiazol-5-yl)pyridin-3-yl)ethyl)-4-hydroxypyrrolidine-2-carboxamide] | – | > 30
Cc1ncsc1-c1cc(F)c([C@@H](C)NC(=O)[C@@H]2C[C@@H](O)CN2C(=O)[C@H](c2cc(OCCN3CCC(O[C@H]4C[C@H](Oc5cc(N6C7CCC6CN(c6cc(-c8ccccc8O)nnc6N)C7)ccn5)C4)CC3)no2)C(C)C)cn1 [compound 542, (2S,4R)-1-((2S)-2-(3-(2-(4-((1r,3S)-3-((4-(3-(3-amino-6-(2-hydroxyphenyl)pyridazin-4-yl)-3,8-diazabicyclo[3.2.1]octan-8-yl)pyridin-2-yl)oxy)cyclobutoxy)piperidin-1-yl)ethoxy)isoxazol-5-yl)-3-methylbutanoyl)-N-((R)-1-(4-fluoro-6-(4-methylthiazol-5-yl)pyridin-3-yl)ethyl)-4-hydroxypyrrolidine-2-carboxamide] | – | > 30
Cc1ncsc1-c1ccc([C@H](C)NC(=O)[C@@H]2C[C@@H](O)CN2C(=O)[C@@H](c2cc(OCC[C@H]3CCN(C[C@H]4C[C@H](Oc5cc(N6C7CCC6CN(c6cc(-c8ccccc8O)nnc6N)C7)ccn5)C4)[C@@H](C)C3)no2)C(C)C)cc1 [compound 548, (2S,4R)-1-((2R)-2-(3-(2-((2S,4S)-1-(((1r,3S)-3-((4-(3-(3-amino-6-(2-hydroxyphenyl)pyridazin-4-yl)-3,8-diazabicyclo[3.2.1]octan-8-yl)pyridin-2-yl)oxy)cyclobutyl)methyl)-2-methylpiperidin-4-yl)ethoxy)isoxazol-5-yl)-3-methylbutanoyl)-4-hydroxy-N-((S)-1-(4-(4-methylthiazol-5-yl)phenyl)ethyl)pyrrolidine-2-carboxamide] | > 75 | < 2.5
Cc1ncsc1-c1ccc([C@H](C)NC(=O)[C@@H]2C[C@@H](O)CN2C(=O)[C@H](c2cc(N3CC(COCCOc4cc(N5C6CCC5CN(c5cc(-c7ccccc7O)nnc5N)C6)ccn4)C3)no2)C(C)C)cc1 [compound 549, (2S,4R)-1-((2S)-2-(3-(3-((2-((4-(3-(3-amino-6-(2-hydroxyphenyl)pyridazin-4-yl)-3,8-diazabicyclo[3.2.1]octan-8-yl)pyridin-2-yl)oxy)ethoxy)methyl)azetidin-1-yl)isoxazol-5-yl)-3-methylbutanoyl)-4-hydroxy-N-((S)-1-(4-(4-methylthiazol-5-yl)phenyl)ethyl)pyrrolidine-2-carboxamide] | – | > 30
Cc1ncsc1-c1ccc([C@H](C)NC(=O)[C@@H]2C[C@@H](O)CN2C(=O)[C@@H](c2cc(N3CC(COCCOc4cc(N5C6CCC5CN(c5cc(-c7ccccc7O)nnc5N)C6)ccn4)C3)no2)C(C)C)cc1 [compound 550, (2S,4R)-1-((2R)-2-(3-(3-((2-((4-(3-(3-amino-6-(2-hydroxyphenyl)pyridazin-4-yl)-3,8-diazabicyclo[3.2.1]octan-8-yl)pyridin-2-yl)oxy)ethoxy)methyl)azetidin-1-yl)isoxazol-5-yl)-3-methylbutanoyl)-4-hydroxy-N-((S)-1-(4-(4-methylthiazol-5-yl)phenyl)ethyl)pyrrolidine-2-carboxamide] | > 75 | < 2.5
Cc1ncsc1-c1cc(F)c([C@H](C)NC(=O)[C@@H]2C[C@@H](O)CN2C(=O)[C@H](c2cc(OCCC3CCN(C[C@H]4C[C@H](Oc5cc(N6C7CCC6CN(c6cc(-c8ccccc8O)nnc6N)C7)ccn5)C4)CC3)no2)C(C)C)cc1F [compound 551, (2S,4R)-1-((2S)-2-(3-(2-(1-(((1r,3S)-3-((4-(3-(3-amino-6-(2-hydroxyphenyl)pyridazin-4-yl)-3,8-diazabicyclo[3.2.1]octan-8-yl)pyridin-2-yl)oxy)cyclobutyl)methyl)piperidin-4-yl)ethoxy)isoxazol-5-yl)-3-methylbutanoyl)-N-((S)-1-(2,5-difluoro-4-(4-methylthiazol-5-yl)phenyl)ethyl)-4-hydroxypyrrolidine-2-carboxamide] | > 75 | < 2.5
Cc1ncsc1-c1cc(F)c([C@H](C)NC(=O)[C@@H]2C[C@@H](O)CN2C(=O)[C@@H](c2cc(OCCC3CCN(C[C@H]4C[C@H](Oc5cc(N6C7CCC6CN(c6cc(-c8ccccc8O)nnc6N)C7)ccn5)C4)CC3)no2)C(C)C)cc1F [compound 552, (2S,4R)-1-((2R)-2-(3-(2-(1-(((1r,3R)-3-((4-(3-(3-amino-6-(2-hydroxyphenyl)pyridazin-4-yl)-3,8-diazabicyclo[3.2.1]octan-8-yl)pyridin-2-yl)oxy)cyclobutyl)methyl)piperidin-4-yl)ethoxy)isoxazol-5-yl)-3-methylbutanoyl)-N-((S)-1-(2,5-difluoro-4-(4-methylthiazol-5-yl)phenyl)ethyl)-4-hydroxypyrrolidine-2-carboxamide] | > 75 | < 2.5
Cc1nccn1-c1ccc([C@H](C)NC(=O)[C@@H]2C[C@@H](O)CN2C(=O)[C@@H](c2cc(OCCN3CCN(CCOc4cc(N5C6CCC5CN(c5cc(-c7ccccc7O)nnc5N)C6)ccn4)C[C@@H]3C)no2)C(C)C)cc1 [compound 553, (2S,4R)-1-((2R)-2-(3-(2-((2S)-4-(2-((4-(3-(3-amino-6-(2-hydroxyphenyl)pyridazin-4-yl)-3,8-diazabicyclo[3.2.1]octan-8-yl)pyridin-2-yl)oxy)ethyl)-2-methylpiperazin-1-yl)ethoxy)isoxazol-5-yl)-3-methylbutanoyl)-4-hydroxy-N-((S)-1-(4-(2-methyl-1H-imidazol-1-yl)phenyl)ethyl) pyrrolidine-2-carboxamide] | > 75 | < 2.5
Cc1ncsc1-c1ccc([C@H](C)NC(=O)[C@@H]2C[C@@H](O)CN2C(=O)[C@@H](c2cc(OCCN3CCC(CCOc4cc(N5C6CCC5CN(c5cc(-c7ccccc7O)nnc5N)C6)ccn4)CC3)no2)C(C)C)cc1 [compound 554, (2S,4R)-1-((2R)-2-(3-(2-(4-(2-((4-(3-(3-amino-6-(2-hydroxyphenyl)pyridazin-4-yl)-3,8-diazabicyclo[3.2.1]octan-8-yl)pyridin-2-yl)oxy)ethyl)piperidin-1-yl)ethoxy)isoxazol-5-yl)-3-methylbutanoyl)-4-hydroxy-N-((S)-1-(4-(4-methylthiazol-5-yl)phenyl)ethyl)pyrrolidine-2-carboxamide] | > 75 | < 2.5
Cc1ncsc1-c1ccc([C@H](CCCC(N)=O)NC(=O)[C@@H]2C[C@@H](O)CN2C(=O)[C@H](c2cc(OCCN3CCC(O[C@H]4C[C@H](Oc5cc(N6C7CCC6CN(c6cc(-c8ccccc8O)nnc6N)C7)ccn5)C4)CC3)no2)C(C)C)cc1 [compound 555, (2S,4R)-N-((S)-5-amino-1-(4-(4-methylthiazol-5-yl)phenyl)-5-oxopentyl)-1-((2S)-2-(3-(2-(4-((1r,3S)-3-((4-(3-(3-amino-6-(2-hydroxyphenyl)pyridazin-4-yl)-3,8-diazabicyclo[3.2.1]octan-8-yl)pyridin-2-yl)oxy)cyclobutoxy)piperidin-1-yl)ethoxy)isoxazol-5-yl)-3-methylbutanoyl)-4-hydroxypyrrolidine-2-carboxamide] | – | > 30
Cc1ncsc1-c1ccc([C@H](CCCC(N)=O)NC(=O)[C@@H]2C[C@@H](O)CN2C(=O)[C@@H](c2cc(OCCN3CCC(O[C@H]4C[C@H](Oc5cc(N6C7CCC6CN(c6cc(-c8ccccc8O)nnc6N)C7)ccn5)C4)CC3)no2)C(C)C)cc1 [compound 556, (2S,4R)-N-((S)-5-amino-1-(4-(4-methylthiazol-5-yl)phenyl)-5-oxopentyl)-1-((2R)-2-(3-(2-(4-((1r,3R)-3-((4-(3-(3-amino-6-(2-hydroxyphenyl)pyridazin-4-yl)-3,8-diazabicyclo[3.2.1]octan-8-yl)pyridin-2-yl)oxy)cyclobutoxy)piperidin-1-yl)ethoxy)isoxazol-5-yl)-3-methylbutanoyl)-4-hydroxypyrrolidine-2-carboxamide] | > 75 | < 2.5
